According to patent US12310975B2, “Modulators of BCL6 proteolysis and associated methods of use” (Arvinas Operations, Inc., priority 2019, dated 2025):

Columns and labels:
[1] = target: T1, BCL6 (Homo sapiens (Human), UniProt P41182); assay: BCL6 TR-FRET assay (BCL6-Avitag-Biotin / BCoR-Cy5 peptide); format: binding
In short: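 After 30 min room-temperature preincubation of compound titrations with 2 nM biotinylated BCL6-Avitag, 100 nM Cy5-labelled BCoR peptide plus 2 nM Eu-streptavidin were added and TR-FRET read 2 h later. HEPES pH 7.5/125 mM NaCl buffer with Triton X, glutathione (or DTT) and BSA.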

[2] = target: T1, BCL6; assay: Immunofluorescence high content imaging of BCL6 degradation in T47D cells; format: cell-based; conditions: for Dmax: T47D
In short: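 Read-out is BCL6 immunofluorescence quantified by high-content imaging (10×, 4 fields per well) of T47D breast cancer cells. Cells were exposed for 3 days to degrader in an 11-point, 3-fold serial dilution reaching a final top concentration of 0.1 or 1 μM.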

Row | SMILES | EC50 [1] [nM] | IC50 [2] [nM] | Dmax [2] [%]
1 | Cn1c(=O)c(Cn2cccn2)cc2cc(Nc3nc(N4CCC(CN5CCN(c6ccc7c(c6)C(=O)N(C6CCC(=O)NC6=O)C7=O)CC5)CC4)ncc3Cl)ccc21 (stereo not shown) [compound 225, 5-(4-((1-(4-((3-((1H-pyrazol-1-yl)methyl)-1-methyl-2-oxo-1,2-dihydroquinolin-6-yl)amino)-5-chloropyrimidin-2-yl)piperidin-4-yl)methyl)piperazin-1-yl)-2-(2,6-dioxopiperidin-3-yl)isoindoline-1,3-dione] | > 100 | ≥ 100 | 
2 | CNC(=O)COc1cc2cc(Nc3nc(N4CCOC(COc5cccc6c5C(=O)N(C5CCC(=O)NC5=O)C6=O)C4)ncc3Cl)ccc2n(C)c1=O (stereo not shown) [compound 226, 2-((6-((5-chloro-2-(2-(((2-(2,6-dioxopiperidin-3-yl)-1,3-dioxoisoindolin-4-yl)oxy)methyl)morpholino)pyrimidin-4-yl)amino)-1-methyl-2-oxo-1,2-dihydroquinolin-3-yl)oxy)-N-methylacetamide] | 10 to 50 | 50 to 100 | < 50
3 | CNC(=O)COc1cc2cc(Nc3nc(N4CCC(OC5CN(c6ccc7c(c6)C(=O)N(C6CCC(=O)NC6=O)C7=O)C5)CC4)ncc3Cl)ccc2n(C)c1=O (stereo not shown) [compound 227, 2-((6-((5-chloro-2-(4-((1-(2-(2,6-dioxopiperidin-3-yl)-1,3-dioxoisoindolin-5-yl)azetidin-3-yl)oxy)piperidin-1-yl)pyrimidin-4-yl)amino)-1-methyl-2-oxo-1,2-dihydroquinolin-3-yl)oxy)-N-methylacetamide] | > 100 | < 10 | < 50
4 | CNC(=O)COc1cc2cc(Nc3nc(N4CCO[C@H](COc5ccc6c(c5)C(=O)N(C5CCC(=O)NC5=O)C6=O)C4)ncc3Cl)ccc2n(C)c1=O (stereo partly drawn) [compound 228, 2-((6-((5-chloro-2-((2S)-2-(((2-(2,6-dioxopiperidin-3-yl)-1,3-dioxoisoindolin-5-yl)oxy)methyl)morpholino)pyrimidin-4-yl)amino)-1-methyl-2-oxo-1,2-dihydroquinolin-3-yl)oxy)-N-methylacetamide] | > 100 | ≥ 100 | 50 to 70
5 | CNC(=O)COc1cc2cc(Nc3nc(N4CCN(CCN5CCN(c6ccc7c(c6)C(=O)N(C6CCC(=O)NC6=O)C7=O)CC5)CC4)ncc3Cl)ccc2n(C)c1=O (stereo not shown) [compound 229, 2-((6-((5-chloro-2-(4-(2-(4-(2-(2,6-dioxopiperidin-3-yl)-1,3-dioxoisoindolin-5-yl)piperazin-1-yl)ethyl)piperazin-1-yl)pyrimidin-4-yl)amino)-1-methyl-2-oxo-1,2-dihydroquinolin-3-yl)oxy)-N-methylacetamide] | 10 to 50 | 10 to 50 | 50 to 70
6 | CNC(=O)COc1cc2cc(Nc3nc(N4CCN(CCCN5CCN(c6ccc7c(c6)C(=O)N(C6CCC(=O)NC6=O)C7=O)CC5)CC4)ncc3Cl)ccc2n(C)c1=O (stereo not shown) [compound 230, 2-((6-((5-chloro-2-(4-(3-(4-(2-(2,6-dioxopiperidin-3-yl)-1,3-dioxoisoindolin-5-yl)piperazin-1-yl)propyl)piperazin-1-yl)pyrimidin-4-yl)amino)-1-methyl-2-oxo-1,2-dihydroquinolin-3-yl)oxy)-N-methylacetamide] | < 10 | 10 to 50 | < 50
7 | CNC(=O)COc1cc2cc(Nc3nc(N4CCN(C)C(COc5cccc6c5C(=O)N(C5CCC(=O)NC5=O)C6=O)C4)ncc3Cl)ccc2n(C)c1=O (stereo not shown) [compound 231, 2-((6-((5-chloro-2-(3-(((2-(2,6-dioxopiperidin-3-yl)-1,3-dioxoisoindolin-4-yl)oxy)methyl)-4-methylpiperazin-1-yl)pyrimidin-4-yl)amino)-1-methyl-2-oxo-1,2-dihydroquinolin-3-yl)oxy)-N-methylacetamide] | 50 to 100 | ≥ 100 | 
8 | CNC(=O)COc1cc2cc(Nc3nc(N4CCN(CC5CCN(c6ccc(C(=O)NC7CCC(=O)NC7=O)nc6)CC5)CC4)ncc3Cl)ccc2n(C)c1=O (stereo not shown) [compound 232, 5-(4-((4-(5-chloro-4-((1-methyl-3-(2-(methylamino)-2-oxoethoxy)-2-oxo-1,2-dihydroquinolin-6-yl)amino)pyrimidin-2-yl)piperazin-1-yl)methyl)piperidin-1-yl)-N-(2,6-dioxopiperidin-3-yl)picolinamide] | > 100 | 10 to 50 | < 50
9 | CNC(=O)COc1cc2cc(Nc3nc(N4CCN(CC5CCN(c6ccc(C(=O)NC7CCC(=O)NC7=O)c(F)c6)CC5)CC4)ncc3Cl)ccc2n(C)c1=O (stereo not shown) [compound 233, 4-(4-((4-(5-chloro-4-((1-methyl-3-(2-(methylamino)-2-oxoethoxy)-2-oxo-1,2-dihydroquinolin-6-yl)amino)pyrimidin-2-yl)piperazin-1-yl)methyl)piperidin-1-yl)-N-(2,6-dioxopiperidin-3-yl)-2-fluorobenzamide] | > 100 | ≥ 100 | < 50
10 | CNC(=O)COc1cc2cc(Nc3nc(N4CCN5CCN(c6ccc7c(c6)C(=O)N(C6CCC(=O)NC6=O)C7=O)CC5C4)ncc3Cl)ccc2n(C)c1=O (stereo not shown) [compound 234, 2-((6-((5-chloro-2-(8-(2-(2,6-dioxopiperidin-3-yl)-1,3-dioxoisoindolin-5-yl)octahydro-2H-pyrazino[1,2-a]pyrazin-2-yl)pyrimidin-4-yl)amino)-1-methyl-2-oxo-1,2-dihydroquinolin-3-yl)oxy)-N-methylacetamide] | < 10 | ≥ 100 | 
11 | Cn1c(=O)c(-c2cnoc2)cc2cc(Nc3nc(N4CCC(CN5CCN(c6ccc7c(c6)C(=O)N(C6CCC(=O)NC6=O)C7=O)CC5)CC4)ncc3Cl)ccc21 (stereo not shown) [compound 235, 5-(4-((1-(5-chloro-4-((3-(isoxazol-4-yl)-1-methyl-2-oxo-1,2-dihydroquinolin-6-yl)amino)pyrimidin-2-yl)piperidin-4-yl)methyl)piperazin-1-yl)-2-(2,6-dioxopiperidin-3-yl)isoindoline-1,3-dione] | > 100 | ≥ 100 | 
12 | CC(=O)COc1cc2cc(Nc3nc(N4CCN(CCCN5CCN(c6ccc7c(c6)C(=O)N(C6CCC(=O)NC6=O)C7=O)CC5)CC4)ncc3Cl)ccc2n(C)c1=O (stereo not shown) [compound 236, 5-(4-(3-(4-(5-chloro-4-((1-methyl-2-oxo-3-(2-oxopropoxy)-1,2-dihydroquinolin-6-yl)amino)pyrimidin-2-yl)piperazin-1-yl)propyl)piperazin-1-yl)-2-(2,6-dioxopiperidin-3-yl)isoindoline-1,3-dione] | < 10 | 10 to 50 | 50 to 70
13 | CNC(=O)COc1cc2cc(Nc3nc(N4CCC[C@H](COc5ccc6c(c5)C(=O)N(C5CCC(=O)NC5=O)C6=O)C4)ncc3Cl)ccc2n(C)c1=O (stereo partly drawn) [compound 237, 2-((6-((5-chloro-2-((3S)-3-(((2-(2,6-dioxopiperidin-3-yl)-1,3-dioxoisoindolin-5-yl)oxy)methyl)piperidin-1-yl)pyrimidin-4-yl)amino)-1-methyl-2-oxo-1,2-dihydroquinolin-3-yl)oxy)-N-methylacetamide] | 10 to 50 | 10 to 50 | < 50
14 | CNC(=O)COc1cc2cc(Nc3nc(N4CCN(C(C)(C)C5CCN(c6ccc7c(c6)CN(C6CCC(=O)NC6=O)C7=O)CC5)CC4)ncc3Cl)ccc2n(C)c1=O (stereo not shown) [compound 270, 2-{[6-({5-chloro-2-[4-(2-{1-[2-(2,6-dioxopiperidin-3-yl)-1-oxo-2,3-dihydro-1H-isoindol-5-yl]piperidin-4-yl}propan-2-yl)piperazin-1-yl]pyrimidin-4-yl}amino)-1-methyl-2-oxo-1,2-dihydroquinolin-3-yl]oxy}-N-methylacetamide] | 10 to 50 | < 10 | ≥ 70
15 | CNC(=O)COc1cc2cc(Nc3nc(N4CCOC(CN5CCN(c6cccc7c6C(=O)N(C6CCC(=O)NC6=O)C7=O)CC5)C4)ncc3Cl)ccc2n(C)c1=O (stereo not shown) [compound 271, 2-{[6-({5-chloro-2-[2-({4-[2-(2,6-dioxopiperidin-3-yl)-1,3-dioxo-2,3-dihydro-1H-isoindol-4-yl]piperazin-1-yl}methyl)morpholin-4-yl]pyrimidin-4-yl}amino)-1-methyl-2-oxo-1,2-dihydroquinolin-3-yl]oxy}-N-methylacetamide] | 10 to 50 | 50 to 100 | 50 to 70
16 | CNC(=O)COc1cc2cc(Nc3nc(N4CCOC(CN5CCN(c6ccc7c(c6)C(=O)N(C6CCC(=O)NC6=O)C7=O)CC5)C4)ncc3Cl)ccc2n(C)c1=O (stereo not shown) [compound 272, 2-{[6-({5-chloro-2-[2-({4-[2-(2,6-dioxopiperidin-3-yl)-1,3-dioxo-2,3-dihydro-1H-isoindol-5-yl]piperazin-1-yl}methyl)morpholin-4-yl]pyrimidin-4-yl}amino)-1-methyl-2-oxo-1,2-dihydroquinolin-3-yl]oxy}-N-methylacetamide] | < 10 | 10 to 50 | 50 to 70
17 | CNC(=O)COc1cc2cc(Nc3nc(N4CCN(CC5CCN(c6cnc(C(=O)NC7CCC(=O)NC7=O)nc6)CC5)CC4)ncc3Cl)ccc2n(C)c1=O (stereo not shown) [compound 273, 5-[4-({4-[5-chloro-4-({1-methyl-3-[(methylcarbamoyl)methoxy]-2-oxo-1,2-dihydroquinolin-6-yl}amino)pyrimidin-2-yl]piperazin-1-yl}methyl)piperidin-1-yl]-N-(2,6-dioxopiperidin-3-yl)pyrimidine-2-carboxamide] | 10 to 50 | 50 to 100 | < 50
18 | CNC(=O)C1Oc2cc(Nc3nc(N4CCN(C(C)(C)C5CCN(c6ccc7c(c6)C(=O)N(C6CCC(=O)NC6=O)C7=O)CC5)CC4)ncc3Cl)ccc2N(C)C1=O (stereo not shown) [compound 274, 7-({5-chloro-2-[4-(2-{1-[2-(2,6-dioxopiperidin-3-yl)-1,3-dioxo-2,3-dihydro-1H-isoindol-5-yl]piperidin-4-yl}propan-2-yl)piperazin-1-yl]pyrimidin-4-yl}amino)-N,4-dimethyl-3-oxo-3,4-dihydro-2H-1,4-benzoxazine-2-carboxamide] | > 100 | ≥ 100 | 
